Earlier results in US20180136238A1 (priority 2016, published 2018).
Where two headings read alike, the source gives them in different places.

Key:
[1] = in vivo
[2] = blood, equilibrium of bicarbonate complex with protein bound uranyl ions

For `[CH3][Hg][CH3]` [dimethyl mercury], the LD50 dose [1] is given as 0.015 mg/kg.

In the case of `[Hg+2].[S-2]` [mercuric sulfide], the LD50 dose [1] is given as ~100,000.0 mg/kg.

In the case of arsenic, the LD50 dose [1] is given as 14 mg/kg.

In the case of `[U]` [uranium], the “uranium in blood bicarbonate-formed” value [2] is given as 60%, the “uranium in blood protein-formed” value [2] is given as 40% and the “uranium in blood associated with red blood cells” value (other studies) is given as 20%. For the same compound, the “uranium in blood present in the inorganic compartment of plasma” value (other studies) was 74% and the “uranium in blood protein-formed” value (other studies) was 32%.
